Read-outs that look alike come from different tables or passages of the source.
How the values were obtained:
[1] = test system: JGA (renin-producing JG cells); test: In vitro microperfused afferent arteriole-glomerulus (JGA) renin release, quinacrine fluorescence confocal imaging; design: species or system rabbit; conditions: for renin release (change in quinacrine fluorescence intensity [F0-F] normalized to baseline [F0]): agent alone in afferent arteriole perfusate, within 30 minutes, glucose 25.5 mM, equimolar mannitol, α-ketoglutarate 5 mM, otherwise normal glucose 5.5 mM; for EC50: dose-response, FIG. 2C; for effect on high glucose level-induced renin release and afferent arteriole diameter increase (FIG. 1C): high glucose 25.5 mM
Procedure: (A and B) Real-time confocal fluorescence imaging of renin content (quinacrine, light gray) and vascular diameter (cell membranes are labeled with R-18, dark gray) in the in vitro microperfused terminal afferent arteriole (AA) with attached glomerulus (G) freshly isolated from rabbit kidney. […] Scale bar: 20 μm.
(A) Overview of the TCA cycle and sites of inhibition with fluorocitrate (F: 100 μM: blocks aconitase in step 2) and malonate (MAL; 1 mM; blocks succinate dehydrogenase in step 6).
A superficial afferent arteriole with its glomerulus was microdissected from freshly harvested kidney slices. The afferent arteriole was cannulated and perfused using a method similar to those described previously (37). Briefly, dissection media were prepared from DMEM mixture F-12 (Sigma-Aldrich). Fetal bovine serum (Hyclone) was added at a final concentration of 3%. Vessel perfusion and bath fluid was a modified Krebs-Ringer-HCO3 buffer containing 115 mM NaCl, 25 mM NaHCO3, 0.96 mM NaH2PO4, 0.24 mM Na2HPO4, 5 mM KCl, 1.2 mM MgSO4, 2 mM CaCl2, 5.5 mM d-glucose and 100 μM l-arginine. The solutions were aerated with 95% O2 and 5% CO2 for 45 minutes, and their pH was adjusted to 7.4. Each preparation was transferred to a thermoregulated Lucite chamber mounted on the Leica inverted microscope. The preparation was kept in the dissection solution, and also, temperature was kept at 4° C. until cannulation of the arteriole was completed and then was gradually raised to 37° C. for the remainder of the experiment. In some experiments, the endothelium was mechanically removed from the vessel wall with the help of the perfusion pipette and by perfusing the control solution under the endothelium (between the endothelium and smooth muscle). […] The bath was continuously aerated with 95% O2 and 5% CO2. The acidotropic fluorophore quinacrine (Sigma-Aldrich), which is an intravital fluorescent dye selective for dense-core secretory granules, was used for labeling the renin granules (12, 13, 15). The membrane staining octadecyl rhodamine B chloride R18 and the nuclear stain Hoechst 33342 were used to visualize the glomerulus with its attached afferent arteriole. For ratiometric Ca2+ imaging, the fluo-4/fura red pair was used and calibrated as described before (37). DAF-FM was used to monitor changes in NO production as described (38). All fluorophores were from Invitrogen.

GENCs [2] = test: GENC [Ca2+]i, fura-2 spectrofluorometry; type: cell-based, mouse; conditions: for GENC intracellular Ca2+ [Ca2+]i level: high glucose 25.5 mM, succinate 5 mM, malonate 1 mM, fluorocitrate 100 p.M, normal glucose baseline 133±14 nM
HEK cells = conditions: saturating doses of succinate
From the text: (§1) FIG. 5: Localization of GPR91 in GENCs. […] C, control mix with no cDNA; WK, whole kidney from WT GPR91^+/+ or KO GPR91^−/− mice. […] JGC, renin-producing JG cells. (B-E) Localization of GPR91 protein in rat kidney with immunohistochemistry. […] One region of the glomerulus (indicated by a rectangle) is magnified in C and D for high-resolution colocalization studies. […] DIC background is merged with fluorescence to show glomerular morphology. (E) Negative control using no GPR91 primary antibody. Nuclei are medium gray. Scale bar: 10 μm (B-E).

JG cells = conditions: saturating doses of succinate
From the text: as §1

VSMCs = conditions: saturating doses of succinate
From the text: as §1

vascular endothelium = test: Endothelial [Ca2+]i (fluo-4/fura red) and NO production (DAF-FM) in microperfused afferent arteriole-glomerulus; design: species or system mouse; conditions: glucose 5.5 to 25.5 mM or succinate 5 mM in arteriolar perfusate
Procedure: FIG. 6: GPR91 signaling in the vascular endothelium. […] Scale bar: 20 μm. […] KO (^−/−); n=6 each. […] A superficial afferent arteriole with its glomerulus was microdissected from freshly harvested kidney slices. The afferent arteriole was cannulated and perfused using a method similar to those described previously (37). Briefly, dissection media were prepared from DMEM mixture F-12 (Sigma-Aldrich). […] Vessel perfusion and bath fluid was a modified Krebs-Ringer-HCO3 buffer containing 115 mM NaCl, 25 mM NaHCO3, 0.96 mM NaH2PO4, 0.24 mM Na2HPO4, 5 mM KCl, 1.2 mM MgSO4, 2 mM CaCl2, 5.5 mM d-glucose and 100 μM l-arginine. […] Each preparation was transferred to a thermoregulated Lucite chamber mounted on the Leica inverted microscope. The preparation was kept in the dissection solution, and also, temperature was kept at 4° C. until cannulation of the arteriole was completed and then was gradually raised to 37° C. for the remainder of the experiment. In some experiments, the endothelium was mechanically removed from the vessel wall with the help of the perfusion pipette and by perfusing the control solution under the endothelium (between the endothelium and smooth muscle). […] The acidotropic fluorophore quinacrine (Sigma-Aldrich), which is an intravital fluorescent dye selective for dense-core secretory granules, was used for labeling the renin granules (12, 13, 15). […]

GENCs [3] = conditions: read-out: EC50, PGE2 release from GENCs; dose-response, FIG. 6D
From the text: Specially engineered biosensor cells, HEK293 cells, expressing the Ca^2+-coupled PGE2 receptor EP1 were loaded with fluo-4 and positioned next to GENCs in culture. […] Normalized changes in HEK293-EP1 biosensor cell fluo-4 intensity are shown and served as an index of PGE2 release. n=6 for each dose.

[4] = succinate 5 mM, malonate 1 mM, fluorocitrate 100 μM
[5] = agent combined with high glucose 25.5 mM, succinate 5 mM, malonate 1 mM, fluorocitrate 100 μM, L-NAME 1 mM, indomethacin 50 μM
[6] = L-NAME 1 mM, indomethacin 50 μM

SMILES	renin release (change in quinacrine fluorescence intensity [F0-F] normalized to baseline [F0]) [1, 4]	renin release (change in quinacrine fluorescence intensity normalized to baseline) [1, 5]	GENC intracellular Ca2+ [Ca2+]i level (GENCs [2])	also measured
O=C(O)CCC(=O)C(=O)O [α-ketoglutarate]	no effect			
O=C(O)CC(=O)O [malonate]	54±7 Δ%	77±2 Δ%	377 ± 22 nM	EC50 [1]: 367 µM; renin release (change in quinacrine fluorescence intensity normalized to baseline) ([1]; malonate 1 mM plus succinate 5 mM): 83±4 Δ%
COc1ccc2c(c1)c(CC(=O)O)c(C)n2C(=O)c1ccc(Cl)cc1 [indomethacin]		13±2 Δ%		effect on high glucose level-induced renin release and afferent arteriole diameter increase (FIG. 1C) [1, 6]: inhibited the effects of high glucose level
O=C(O)CCC(=O)O [succinate]	73±2 Δ%	56±3 Δ%	549 ± 29 nM	EC50 [1]: 335 µM; [Ca2+]i response in GENCs with GPR91 silenced (GENCs [2]; GPR91 siRNA): no [Ca2+]i response; EC50 (GENCs [2]; succinate added to the superfusate, FIG. 5G, read-out: EC50, GENC Ca2+ signal): 69 µM; [Ca2+]i elevation (HEK cells): did not cause [Ca2+]i elevations; [Ca2+]i elevation (JG cells): did not cause [Ca2+]i elevations; [Ca2+]i elevation (VSMCs): did not cause [Ca2+]i elevations; endothelial NO production (vascular endothelium): significant elevations; endothelial [Ca2+]i (vascular endothelium): significant elevations; EC50 (GENCs [3]): 214 µM
OC[C@@H](O)[C@@H](O)[C@H](O)[C@H](O)CO [mannitol]	19±4 Δ%			
O=C(O)CC(O)(C(=O)O)C(F)C(=O)O (centres unmarked) [fluorocitrate]	11±2 Δ%	16±2 Δ%	143 ± 11 nM	
COC(=O)[C@@H](N)CCCNC(=N)N[N+](=O)[O-] [L-NAME]		14±6 Δ%		effect on high glucose level-induced renin release and afferent arteriole diameter increase (FIG. 1C) [1, 6]: inhibited the effects of high glucose level
